Measurements as given in publication PMC11110727, “Exploiting thiol-functionalized benzosiloxaboroles for achieving diverse substitution patterns – synthesis, characterization and biological evaluation of promising antibacterial agents” (RSC Medicinal Chemistry, 2024).
In brackets after ≈: the same amount, converted by molar mass.

Assays:
[1] = tested on: S. epidermidis ATCC 12228; assay: Antibacterial activity: MIC/MBC determination and disc-diffusion; type: cell-based; conditions: Staphylococcus epidermidis, ATCC12228, S. epidermidis ATCC 12228
Protocol: (§1) Direct antimicrobial activity was determined against the following standard strains: (1) Gram-positive cocci: methicillin-sensitive Staphylococcus aureus ATCC 6538P (MSSA), methicillin-resistant S. aureus subsp. aureus ATCC 43300 (MRSA), S. epidermidis ATCC 12228, Enterococcus faecium ATCC 6057, E. faecalis ATCC 29212, Bacillus subtilis ATCC 6633; (2) Gram-negative bacteria from Enterobacteriales order: Klebsiella pneumoniae ATCC 13883, Escherichia coli ATCC 25922, Enterobacter cloacae DSM 6234, Proteus mirabilis ATCC 12453, Serratia marcescens ATCC 13880; (3) Gram-negative non-fermentative rods: Acinetobacter baumannii ATCC 19606, Pseudomonas aeruginosa ATCC 27853, Stenotrophomonas maltophilia ATCC 12714, S. maltophilia ATCC 13637, Burkholderia cepacia ATCC 25416, Bordetella bronchiseptica ATCC 4617; (4) yeasts: Candida albicans ATCC 90028, C. krusei ATCC 6258, C. parapsilosis ATCC 22019, C. tropicalis (Castellani) Berkhout ATCC 750, C. tropicalis IBA 171, C. guilliermondii IBA 155, and Saccharomyces cerevisiae ATCC 9763. Moreover, 5 clinical strains of methicillin-resistant S. aureus were also included: NMI 664 K, NMI 1576 K, NMI 1712 K, NMI 1991 K, and NMI 2541 K. All strains were stored at −80 °C. Prior to testing, each bacterial strain was subcultured twice on tryptic soy agar TSA (bioMerieux) medium and yeast strains on Sabouraud dextrose agar (bioMerieux) for 24–48 h at 30 °C to ensure viability. The antimicrobial activity was evaluated as previously described[26] by the disc-diffusion method and the MIC determination assays according to the EUCAST (ref. [71] and [72]) and CLSI (ref. [53] and [73]) recommendations. Assessment of bactericidal (MBC) and fungicidal (MFC) activities was performed according to the CLSI recommendations.[54,74] The following reference agents were used: fluconazole (in the case of fungi), linezolid (for Gram-positive bacteria), and nitrofurantoin (for Gram-negative rods). The new benzosiloxaboroles were dissolved in DMSO (Sigma).

[2] = tested on: E. faecalis ATCC 29212; assay: as above; type: cell-based; conditions: Enterococcus faecalis, ATCC29212, E. faecalis ATCC 29212
Protocol: as §1

[3] = tested on: E. faecium ATCC 6057; assay: as above; type: cell-based; conditions: Enterococcus faecium, ATCC6057, E. faecium ATCC 6057
Protocol: as §1

[4] = tested on: S. aureus ATCC 43300 MRSA; assay: as above; type: cell-based; conditions: Staphylococcus aureus, S. aureus ATCC 43300 MRSA
Protocol: as §1

[5] = tested on: Human normal lung fibroblasts MRC-5; assay: MTT-based viability (cytotoxicity) assay; conditions: Homo sapiens, MRC5, 48 h
Protocol: To evaluate the cytotoxic effect of the tested compounds, an MTT-based assay was performed. […] Moreover, based on available IC50 and MIC (for standard and clinical S. aureus MRSA strains) values, the selectivity index (SI) was calculated for several compounds as the IC50/MIC ratio (Table 5).[60]
MRC-5 pd30 human fibroblasts (ECACC) were cultured in MEME, Minimum Essential Medium Eagle (Merck), supplemented with 10% fetal bovine serum (Merck), 2 mM L-glutamine, antibiotics (100 U mL^−1 penicillin, 100 μg mL^−1 streptomycin, Merck) and 1% non-essential amino acids (Merck). Cells were grown in 75 cm^2 cell culture flasks (Sarstedt), in a humidified atmosphere of CO2/air (5/95%) at 37 °C. MTT-based viability assay was conducted as described previously.[26] Optical densities were measured at 570 nm using a BioTek microplate reader. All measurements were carried out in three replicates and the results expressed as a percent of viable cells versus control cells. […] The selectivity index (SI) was calculated as [drawing 30] , in accordance with previously described protocols.[60]

[6] = tested on: S. aureus NMI 1576 K MRSA; assay: Antibacterial activity against clinical MRSA: MIC/MBC; type: cell-based; conditions: Staphylococcus aureus, NMI 1576 K MRSA
Protocol: as §1

[7] = tested on: S. aureus NMI 1712 K MRSA; assay: as above; type: cell-based; conditions: Staphylococcus aureus, NMI 1712 K MRSA
Protocol: as §1

[8] = tested on: S. aureus NMI 2541 K MRSA; assay: as above; type: cell-based; conditions: Staphylococcus aureus, NMI 2541 K MRSA
Protocol: as §1

[9] = tested on: S. aureus NMI 664 K MRSA; assay: as above; type: cell-based; conditions: Staphylococcus aureus, NMI 664 K MRSA
Protocol: as §1

[10] = tested on: S. aureus NMI 1991 K MRSA; assay: as above; type: cell-based; conditions: Staphylococcus aureus, NMI 1991 K MRSA
Protocol: as §1

[11] = tested on: S. aureus ATCC 6538P; assay: Antibacterial activity: MIC/MBC determination and disc-diffusion; type: cell-based, Staphylococcus aureus; conditions: S. aureus ATCC 6538P
Protocol: as §1

[12] = biological target: T1, S. aureus MRSA LeuRS (Staphylococcus aureus, UniProt P67513); assay: In vitro aminoacylation (enzyme inhibition) assay; type: biochemical; conditions: read-out: residual activity of S. aureus MRSA LeuRS
T1 construct: The LeuRS gene from MRSA (PW-71) was amplified by PCR; made in house; host or cells: E. coli BL21(DE3)pLys
Protocol: We have undertaken research devoted to determining the most probable mechanism of antibacterial action. […] Considering structural similarity to benzoxaboroles we assumed that benzosiloxaboroles are active through this mechanism. Our working hypothesis was supported by the fact that benzosiloxaboroles are rather bacteriostatic than bactericidal,[26,27] which is consistent with the specificity of the OBORT mechanism. The enzyme inhibition assay was performed for compound 20 as it features high activity against S. aureus MRSA strains and the respective favorable SI = 19.5 (Table 5). […] We obtained S. aureus MRSA LeuRS in the E. coli expression system. From 400 mL culture, approximately 20 mg of 6× His tagged LeuRS (with a molecular mass of 92.3 kDa) was purified to more than 90% homogeneity, which was confirmed by sodium dodecylsulfate-polyacrylamide gel electrophoresis (SDS-PAGE; Fig. S2, ESI ^†). Next, we used an in vitro aminoacylation assay to investigate the ability of 20 to inhibit S. aureus MRSA LeuRS activity consistent with affecting the transfer of the ^14C-radiolabeled leucine to a total tRNA. […] (residual activity 30.8% at 25 μM).
The LeuRS gene from MRSA (PW-71) was amplified by PCR using the following primers: 5′-[…]-3′ and 5′-[…]-3′. The amplified leuRS was digested with BamHI and NotI and ligated into pETDuet-1 vector (Novagen) which carries an N-terminal His tag. After sequencing, the pETDuet1-leuRS plasmid was transformed into E. coli BL21(DE3)pLys cells, which were then grown overnight in 20 mL of Luria–Bertani (LB) medium containing 100 μg mL^−1 ampicillin and 30 μg mL^−1 chloramphenicol. Then the overnight culture was inoculated into 400 mL of Super Broth medium containing ampicillin and chloramphenicol at the same concentration, and the cells were grown until the OD600 reached 0.6. […] The protein concentration in the final solution was 2.86 mg mL^−1 (determined by the Bradford method and bovine serum albumin as a standard).[78] […]

[13] = read-out: MBC (first MBC where Eagle effect)

T1 sequence (P67513 whole entry): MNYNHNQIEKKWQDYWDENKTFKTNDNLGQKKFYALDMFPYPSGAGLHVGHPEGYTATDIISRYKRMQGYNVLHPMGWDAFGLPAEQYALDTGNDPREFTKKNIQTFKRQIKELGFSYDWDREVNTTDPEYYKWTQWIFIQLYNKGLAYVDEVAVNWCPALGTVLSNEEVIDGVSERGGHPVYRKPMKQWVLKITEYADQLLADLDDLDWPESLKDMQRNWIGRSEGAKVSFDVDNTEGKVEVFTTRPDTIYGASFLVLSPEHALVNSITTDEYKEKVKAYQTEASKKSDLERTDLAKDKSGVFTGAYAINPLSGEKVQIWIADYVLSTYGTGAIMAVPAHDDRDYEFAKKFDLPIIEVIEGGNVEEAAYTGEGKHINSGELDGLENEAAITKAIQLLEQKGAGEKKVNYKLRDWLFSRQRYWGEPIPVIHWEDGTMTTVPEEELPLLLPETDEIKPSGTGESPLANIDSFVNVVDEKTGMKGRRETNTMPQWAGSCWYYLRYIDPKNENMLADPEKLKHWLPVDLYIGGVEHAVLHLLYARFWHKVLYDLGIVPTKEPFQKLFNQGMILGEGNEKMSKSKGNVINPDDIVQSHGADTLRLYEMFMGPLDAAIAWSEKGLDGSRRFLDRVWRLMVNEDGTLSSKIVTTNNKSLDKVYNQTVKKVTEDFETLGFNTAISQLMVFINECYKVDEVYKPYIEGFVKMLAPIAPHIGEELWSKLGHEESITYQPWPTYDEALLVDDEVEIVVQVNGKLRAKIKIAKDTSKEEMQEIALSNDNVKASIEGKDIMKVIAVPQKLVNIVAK

For `CC(=O)NC[C@H]1CN(c2ccc(N3CCOCC3)c(F)c2)C(=O)O1` [LIN, linezolid, reference compound], the MBC [1] was over 128 µg/mL, the MIC ([1]; read-out: MIC) was 1 µg/mL (≈ 2.96 µM) and the MBC [2] was over 128 µg/mL. For the same compound, the MIC ([2]; read-out: MIC) was 2 µg/mL (≈ 5.93 µM), the MBC [3] was over 128 µg/mL and the MIC ([3]; read-out: MIC) was 2 µg/mL (≈ 5.93 µM). It also gave an MBC [4, 13] of over 128 µg/mL, an MIC ([4]; read-out: MIC) of 2 µg/mL (≈ 5.93 µM) and an IC50 [5] of over 400 µg/mL. For the same compound, the MBC [6, 13] was over 128 µg/mL, the MIC ([6]; read-out: MIC) was 1 µg/mL (≈ 2.96 µM) and the MBC [7, 13] was over 128 µg/mL. For the same compound, the MIC ([7]; read-out: MIC) was 1 µg/mL (≈ 2.96 µM), the MBC [8, 13] was over 128 µg/mL and the MIC ([8]; read-out: MIC) was 1 µg/mL (≈ 2.96 µM). It also gave an MBC [9, 13] of over 128 µg/mL, an MIC ([9]; read-out: MIC) of 1 µg/mL (≈ 2.96 µM) and an MBC [10, 13] of over 128 µg/mL. For the same compound, the MIC ([10]; read-out: MIC) was 1 µg/mL (≈ 2.96 µM), the “diameter of inhibition zone” value ([11]; disc-diffusion, — = zone not observed) was 25 mm and the MBC ([11]; Staphylococcus aureus, ATCC6538P, read-out: MBC (first MBC where Eagle effect)) was over 128 µg/mL. The MIC ([11]; Staphylococcus aureus, ATCC6538P, read-out: MIC) was 1 µg/mL (≈ 2.96 µM).

For `Nc1ccc(S(=O)(=O)Nc2ccc3c(c2)B(O)OC3)cc1` [PT662, reference compound], the remaining activity at 25 µM [12] was 30.8%.
